# Test results reported in patent US20230103631A1, “PEPTIDES AS SELECTIVE GIP RECEPTOR AGONISTS” (Sanofi, priority 2020, published 2023).
# *1 amine or outer side, *2 acyl side, *3 side chain or, on linkers, in order; H or OH if unused. Where a SMILES comes first, the peptide text is derived from it. Side-chain parts run from the residue outwards. [ ]: non-standard residue; d: D form. The star is where a group is joined. C18 diacid = O=C(O)CCCCCCCCCCCCCCCCC(=O)*; γGlu = O=C(O)[C@H](CCC(=O)[*:2])N[*:1]; AEEA = NCCOCCOCC(=O)O; Aib = CC(C)(N)C(=O)O
# Legend:
# [1] = Dynamic light scattering (DLS) for the assessment of physical stability; type: physicochemical
# Excerpt: A monochromatic and coherent light beam (laser) is used to illuminate the liquid sample. Dynamic Light Scattering (DLS) measures light scattered from particles (1 nm≤radius≤1 μm) that undergo Brownian motion. This motion is induced by collisions between the particles and solvent molecules, that themselves are moving due to their thermal energy. The diffusional motion of the particles results in temporal fluctuations of the scattered light (R. Pecora, Dynamic Light Scattering: Applications of Photon Correlation Spectroscopy, Plenum Press, 1985).
# The scattered light intensity fluctuations are recorded and transformed into an autocorrelation function. By fitting the autocorrelation curve to an exponential function, the diffusion coefficient D of the particles in solution can be derived. The diffusion coefficient is then used to calculate the hydrodynamic radius Rh (or apparent Stokes radius) through the Stokes-Einstein equation assuming spherical particles. This calculation is defined in ISO 13321 and ISO 22412 (International Standard ISO13321 Methods for Determination of Particle Size Distribution Part 8: Photon Correlation Spectroscopy, International Organisation for Standardisation (ISO) 1996; International Standard ISO22412 Particle Size Analysis—Dynamic Light Scattering, International Organisation for Standardisation, 2008).
# In case of polydisperse samples, the autocorrelation function is the sum of the exponential decays corresponding to each of the species. The temporal fluctuations of the scattered light can then be used to determine the size distribution profile of the particle fraction or family. The first order result is an intensity distribution of scattered light as a function of the particle size. The intensity distribution is naturally weighted according to the scattering intensity of each particle fraction or family. For biological materials or polymers, the particle scattering intensity is proportional to the square of the molecular weight. Thus, small amount of aggregates/agglomerates or presence or a larger particle species can dominate the intensity distribution. However, this distribution can be used as a sensitive detector for the presence of large material in the sample.
# The DLS technique produces distributions with inherent peak broadening. The polydispersity index % Pd is a measure of the width of the particle size distribution and is calculated by standard methods described in ISO13321 and ISO22412 [International Standard ISO13321 Methods for Determination of Particle Size Distribution Part 8: Photon Correlation Spectroscopy, International Organisation for Standardisation (ISO) 1996; International Standard ISO22412 Particle Size Analysis—Dynamic Light Scattering, International Organisation for Standardisation (ISO) 2008].
# Solutions from solid samples were prepared in buffer systems (see below) with a target concentration of 300 μM compound based on the previously determined % purity.
# DLS buffer system A) 20 mM phosphate buffer pH 7.4
# DLS buffer system B) 8 mM phosphate buffer pH 7.4, 14 mg/ml propylene glycol, 5.5 mg/ml phenol
# DLS buffer system C) 100 mM phosphate buffer pH 7.4, 2.7 mg/ml m-cresol Solutions were filtered through 0.22 μm pore size and filled into sterilized glass containers under laminar flow conditions. For every peptide solution, the apparent hydrodynamic radius (Rh), the corresponding Scattering Intensity (I), and the Mass Contribution (M) were determined as an average over 3-6 replicates from the intensity distribution of the scattered light averaging only high-quality measurements. Relative standard deviations (RSD) for these parameters were calculated from the same number of replicates. […]
# [2] = target: T1, human GIP receptor (hGIPR) (Homo sapiens, UniProt P48546); assay: Binding assay, displacement of [125I]GIP from HEK-293 membranes expressing GIPR; conditions: [125I]GIP displacement
# T1 sequence (P48546 22-466): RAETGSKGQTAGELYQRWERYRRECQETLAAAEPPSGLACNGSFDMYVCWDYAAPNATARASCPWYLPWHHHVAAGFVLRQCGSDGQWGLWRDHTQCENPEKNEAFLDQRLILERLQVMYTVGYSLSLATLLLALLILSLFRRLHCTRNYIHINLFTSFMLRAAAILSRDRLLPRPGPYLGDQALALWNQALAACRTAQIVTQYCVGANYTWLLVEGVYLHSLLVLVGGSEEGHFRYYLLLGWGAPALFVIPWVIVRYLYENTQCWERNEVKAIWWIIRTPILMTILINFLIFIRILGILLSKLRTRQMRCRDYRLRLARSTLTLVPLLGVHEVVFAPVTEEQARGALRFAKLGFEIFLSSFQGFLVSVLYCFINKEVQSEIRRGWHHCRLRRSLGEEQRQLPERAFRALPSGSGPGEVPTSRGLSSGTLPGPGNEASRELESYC
# Experimental: HEK-293 cells recombinantly over-expressing GIPR or GLP-1R were grown to 50% confluency, washed with warm 1×PBS (Gibco) and detached in HEPES/EDTA-buffer (100 mM HEPES pH 7.5, 5 mM EDTA). Cells were harvested by centrifugation at 4° C. and 3000×g and the pellets were stored at −80° C. until further processing.
# After thawing on ice, pellets were resuspended in HEPES/EDTA-buffer and homogenized on ice for 1 min using Ultra-Turray T25. After subsequent sonification the cell debris was removed by centrifugation at 1000×g and 4° C. Supernatants were then ultra-centrifuged at 100000×g and 4° C. under vacuum for 30 min. Pellets were resuspended in HEPES/EDTA/NaCl-buffer (20 mM HEPES, 1 mM EDTA, 150 mM NaCl; add 1 Complete Mini Protease inhibitor cocktail to 10 ml buffer) and protein content was determined via BCA-Protein assay.
# [3] = DLS buffer system A, 4 weeks storage at 40° C.
# [4] = DLS buffer system B (phenol), 0 weeks
# [5] = DLS buffer system B (phenol), 4 weeks storage at 40° C.
SMILES,"I and SD (Scattering Intensity) ([1]; DLS buffer system A, 0 weeks) [%]","M and SD (Mass Contribution) ([1]; DLS buffer system A, 0 weeks) [%]","apparent Rh and SD ([1]; DLS buffer system A, 0 weeks) [nm]","I and SD (Scattering Intensity) [1, 3] [%]","M and SD (Mass Contribution) [1, 3] [%]","apparent Rh and SD [1, 3] [nm]",IC50 [2] [nM],"I and SD (Scattering Intensity) [1, 4] [%]","M and SD (Mass Contribution) [1, 4] [%]","apparent Rh and SD [1, 4] [nm]","I and SD (Scattering Intensity) [1, 5] [%]","M and SD (Mass Contribution) [1, 5] [%]","apparent Rh and SD [1, 5] [nm]"
"CC[C@H](C)[C@H](NC(=O)[C@H](CCCNC(=N)N)NC(=O)[C@H](CC(=O)O)NC(=O)[C@H](CCCCNC(=O)COCCOCCNC(=O)COCCOCCNC(=O)CC[C@H](NC(=O)CCCCCCCCCCCCCCCCC(=O)O)C(=O)O)NC(=O)C(C)(C)NC(=O)[C@@H](NC(=O)[C@H](CO)NC(=O)[C@H](CC(C)C)NC(=O)[C@H](CC(=O)O)NC(=O)[C@H](CO)NC(=O)[C@@H](NC(=O)[C@H](Cc1ccccc1)NC(=O)[C@@H](NC(=O)CNC(=O)[C@H](CCC(=O)O)NC(=O)C(C)(C)NC(=O)[C@@H](N)Cc1ccc(O)cc1)[C@@H](C)O)[C@@H](C)CC)[C@@H](C)CC)C(=O)N[C@@H](Cc1c[nH]cn1)C(=O)N[C@@H](CCC(N)=O)C(=O)NC(C)(C)C(=O)N[C@@H](CCC(=O)O)C(=O)N[C@@H](Cc1ccccc1)C(=O)N[C@H](C(=O)N[C@@H](CCC(=O)O)C(=O)N[C@@H](Cc1c[nH]c2ccccc12)C(=O)N[C@@H](CC(C)C)C(=O)N[C@@H](CC(C)C)C(=O)N[C@@H](C)C(=O)N[C@@H](CCC(N)=O)C(=O)NCC(=O)N1CCC[C@H]1C(=O)N[C@@H](CO)C(=O)N[C@@H](CO)C(=O)NCC(=O)N[C@@H](C)C(=O)N1CCC[C@H]1C(=O)N1CCC[C@H]1C(=O)N1CCC[C@H]1C(=O)N[C@@H](CO)C(N)=O)[C@@H](C)CC [SEQ ID NO: 4, H2N-Y-Aib-E-G-T-F-I-S-D-I-S-I-Aib-K[{AEEA}2-gGlu-C18OH]-D-R-I-H-Q-Aib-E-F-I-E-W-I-L-A-Q-G-P-S-S-G-A-P-P-P-S-NH2] (H-Y[Aib]EGTFISDLSI[Aib]K([AEEA-AEEA-γGlu-C18 diacid])DRIHQ[Aib]EFIEWLLAQGPSSGAPPPS-NH2)",93 ± 1,100 ± 0,1.91 ± 0.05,93 ± 1,100 ± 0,1.9 ± 0.04,0.2,–,–,–,–,–,–
"CC[C@H](C)[C@H](NC(=O)[C@H](CCCNC(=N)N)NC(=O)[C@H](CC(=O)O)NC(=O)[C@H](CCCCNC(=O)CNC(=O)CNC(=O)CNC(=O)CC[C@H](NC(=O)CCCCCCCCCCCCCCCCC(=O)O)C(=O)O)NC(=O)C(C)(C)NC(=O)[C@@H](NC(=O)[C@H](CO)NC(=O)[C@H](CC(C)C)NC(=O)[C@H](CC(=O)O)NC(=O)[C@H](CO)NC(=O)[C@@H](NC(=O)[C@H](Cc1ccccc1)NC(=O)[C@@H](NC(=O)CNC(=O)[C@H](CCC(=O)O)NC(=O)C(C)(C)NC(=O)[C@@H](N)Cc1ccc(O)cc1)[C@@H](C)O)[C@@H](C)CC)[C@@H](C)CC)C(=O)N[C@@H](Cc1c[nH]cn1)C(=O)N[C@@H](CCC(N)=O)C(=O)NC(C)(C)C(=O)N[C@@H](CCC(=O)O)C(=O)N[C@@H](Cc1ccccc1)C(=O)N[C@H](C(=O)N[C@@H](CCC(=O)O)C(=O)N[C@@H](Cc1c[nH]c2ccccc12)C(=O)N[C@@H](CC(C)C)C(=O)N[C@@H](CC(C)C)C(=O)N[C@@H](C)C(=O)N[C@@H](CCC(N)=O)C(=O)NCC(=O)N1CCC[C@H]1C(=O)N[C@@H](CO)C(=O)N[C@@H](CO)C(=O)NCC(=O)N[C@@H](C)C(=O)N1CCC[C@H]1C(=O)N1CCC[C@H]1C(=O)N1CCC[C@H]1C(=O)N[C@@H](CO)C(N)=O)[C@@H](C)CC [SEQ ID NO: 5, H2N-Y-Aib-E-G-T-F-I-S-D-I-S-I-Aib-K[{Gly}3-gGlu-C18OH]-D-R-I-H-Q-Aib-E-F-I-E-W-I-L-A-Q-G-P-S-S-G-A-P-P-P-S-NH2] (H-Y[Aib]EGTFISDLSI[Aib]K([Gly-Gly-Gly-γGlu-C18 diacid])DRIHQ[Aib]EFIEWLLAQGPSSGAPPPS-NH2)",76 ± 2,100 ± 0,2.05 ± 0.04,89 ± 3,100 ± 0,1.99 ± 0.03,0.1,–,–,–,–,–,–
"CC[C@H](C)[C@H](NC(=O)[C@H](Cc1ccccc1)NC(=O)[C@H](CCC(=O)O)NC(=O)[C@H](CCC(=O)O)NC(=O)[C@H](CCC(N)=O)NC(=O)[C@H](Cc1c[nH]cn1)NC(=O)[C@@H](NC(=O)[C@H](CCCNC(=N)N)NC(=O)[C@H](CC(=O)O)NC(=O)[C@H](CCCCNC(=O)COCCOCCNC(=O)COCCOCCNC(=O)CC[C@H](NC(=O)CCCCCCCCCCCCCCCCC(=O)O)C(=O)O)NC(=O)C(C)(C)NC(=O)[C@@H](NC(=O)[C@H](CO)NC(=O)[C@H](CC(C)C)NC(=O)[C@H](CC(=O)O)NC(=O)[C@H](CO)NC(=O)[C@@H](NC(=O)[C@H](Cc1ccccc1)NC(=O)[C@@H](NC(=O)CNC(=O)[C@H](CCC(=O)O)NC(=O)C(C)(C)NC(=O)[C@@H](N)Cc1ccc(O)cc1)[C@@H](C)O)[C@@H](C)CC)[C@@H](C)CC)[C@@H](C)CC)C(=O)N[C@@H](CCC(=O)O)C(=O)N[C@@H](Cc1c[nH]c2ccccc12)C(=O)N[C@@H](CC(C)C)C(=O)N[C@@H](CC(C)C)C(=O)N[C@@H](C)C(=O)N[C@@H](CCC(N)=O)C(=O)NCC(=O)N1CCC[C@H]1C(=O)N[C@@H](CO)C(=O)N[C@@H](CO)C(=O)NCC(=O)N[C@@H](C)C(=O)N1CCC[C@H]1C(=O)N1CCC[C@H]1C(=O)N1CCC[C@H]1C(=O)N[C@@H](CO)C(N)=O [SEQ ID NO: 9, H2N-Y-Aib-E-G-T-F-I-S-D-I-S-I-Aib-K[{AEEA}2-gGlu-C18OH]-DRIHQEEFIEWILAQGPSSGAPPPS-NH2] (H-Y[Aib]EGTFISDLSI[Aib]K([AEEA-AEEA-γGlu-C18 diacid])DRIHQEEFIEWLLAQGPSSGAPPPS-NH2)",80 ± 3,100 ± 0,1.86 ± 0.03,80 ± 3,100 ± 0,1.87 ± 0.03,–,82 ± 3,100 ± 0,1.85 ± 0.04,97 ± 4,100 ± 0,1.73 ± 0.03
